Where a name gives a salt, the structure may show the parent alone.

The target in the assay is T1, full-length USP7 (Homo sapiens, UniProt Q93009).
T1 construct: A 45 μl reaction volume containing full-length USP7 (0.5-1.0 nM)
T1 sequence (Q93009 whole entry): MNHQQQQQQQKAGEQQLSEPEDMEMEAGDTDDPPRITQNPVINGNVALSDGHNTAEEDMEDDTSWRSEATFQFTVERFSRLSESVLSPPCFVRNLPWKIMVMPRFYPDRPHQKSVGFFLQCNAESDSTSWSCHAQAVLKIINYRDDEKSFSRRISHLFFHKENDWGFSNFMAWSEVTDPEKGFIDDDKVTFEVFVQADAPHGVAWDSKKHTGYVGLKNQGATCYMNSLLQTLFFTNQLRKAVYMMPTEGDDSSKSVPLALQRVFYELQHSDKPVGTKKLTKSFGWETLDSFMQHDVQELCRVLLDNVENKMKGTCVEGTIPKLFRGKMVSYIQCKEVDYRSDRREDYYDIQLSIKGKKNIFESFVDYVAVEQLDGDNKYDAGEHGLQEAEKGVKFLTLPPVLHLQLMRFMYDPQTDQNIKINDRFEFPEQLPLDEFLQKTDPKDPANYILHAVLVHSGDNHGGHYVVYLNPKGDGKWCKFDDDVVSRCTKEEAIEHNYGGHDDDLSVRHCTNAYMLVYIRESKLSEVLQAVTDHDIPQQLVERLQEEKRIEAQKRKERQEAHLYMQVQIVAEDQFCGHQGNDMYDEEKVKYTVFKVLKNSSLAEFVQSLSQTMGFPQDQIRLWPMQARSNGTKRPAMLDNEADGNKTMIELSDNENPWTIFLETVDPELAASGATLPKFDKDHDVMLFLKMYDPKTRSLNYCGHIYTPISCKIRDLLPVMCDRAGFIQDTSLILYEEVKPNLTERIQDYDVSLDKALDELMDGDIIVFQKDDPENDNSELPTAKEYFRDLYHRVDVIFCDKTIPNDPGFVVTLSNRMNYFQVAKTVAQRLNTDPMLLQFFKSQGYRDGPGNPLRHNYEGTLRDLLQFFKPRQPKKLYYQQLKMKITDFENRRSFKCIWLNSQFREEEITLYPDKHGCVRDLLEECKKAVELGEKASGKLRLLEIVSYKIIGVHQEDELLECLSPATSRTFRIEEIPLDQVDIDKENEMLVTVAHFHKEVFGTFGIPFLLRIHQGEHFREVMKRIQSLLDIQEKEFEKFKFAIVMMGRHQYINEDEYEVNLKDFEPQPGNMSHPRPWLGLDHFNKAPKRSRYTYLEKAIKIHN
Description: Enzymatic assay to determine IC50 of USP7 inhibitors (Ubiquitin-Rhodamine 110 cleavage). The following applies: full-length USP7 0.5-1.0 nM, 0.5 μM Ubiquitin-Rhodamine 110, 30-60 min at 25° C. Format: biochemical. Here is the method:
Enzymatic Assay to Determine IC50 of USP7 Inhibitors
The IC50 is the concentration of an inhibitor where the measured enzyme activity is reduced by half. In the case of USP7 deubiquitinase, the IC50 of an USP7 inhibitor is the molar concentration of the compound that inhibits 50% of the activity observed in a USP7-mediated-ubiquitin-rhodamine cleavage assay. For the inhibitors disclosed herein, their potency was measured using the following method.
A 45 μl reaction volume containing full-length USP7 (0.5-1.0 nM) in 50 mM HEPES pH 7.5, 150 mM NaCl, 2 mM DTT, 1 mg/ml BSA and 0.05% Tween20 was assembled in wells of 96 well half area black flat bottom plates. Test compounds were first dissolved to 30 mM stocks in DMSO and subsequently introduced to enzyme 15 min after USP7 incubation with DTT at room temperature. The enzymatic reaction was started by adding 0.5 μM Ubiquitin-Rhodamine 110 (final concentration) and allowed to proceed for 30-60 min at 25° C., 250 RPM shaking before Rhodamine fluorescence (485 nm excitation/535 nm emission) was measured using Tecan Spark M10 plate reader. The IC50 values were determined by data fitting to variable slope model four-parameter dose-response curve using GraphPad 7.05.
By IC50 is commonly meant the point on the concentration scale where inhibition reaches its midpoint. A higher IC50 goes with weaker potency in that assay. For `O=c1ccn(CC(F)(F)F)c(=O)n1Cc1cc2c(-c3cc(Cl)cc4ccn(CC5(F)CCNCC5)c34)ncnn2c1` [Example 70, 3-((4-(5-chloro-1-((4-fluoropiperidin-4-yl)methyl)-1H-indol-7-yl)pyrrolo[2,1-f][1,2,4]triazin-6-yl)methyl)-1-(2,2,2-trifluoroethyl)pyrimidine-2,4(1H,3H)-dione dihydrochloride], the IC50 is less than 500 nM. Then `CCn1ccc(=O)n(Cc2cc3c(-c4cc(Cl)cc(C)c4C[C@@H]4CNCCO4)ncnn3c2)c1=O` (single isomer, unassigned) [Example 104, hydrochloride], with less than 500 nM; and `CCn1ccc(=O)n(Cc2cc3c(-c4cc(Cl)cc(C)c4CC4CNC[C@H](C)O4)ncnn3c2)c1=O` (single isomer, unassigned) [Example 114, hydrochloride], with less than 500 nM.

Molecule `CC1(C)C2C(=O)N(Cc3cc4c(-c5cc(Cl)cc6ccn(CC7(F)CCNCC7)c56)ncnn4c3)C(=O)C21` (stereo not shown) [Example 10, 3-((4-(5-chloro-1-((4-fluoropiperidin-4-yl)methyl)-1H-indol-7-yl)pyrrolo[2,1-f][1,2,4]triazin-6-yl)methyl)-6,6-dimethyl-3-azabicyclo[3.1.0]hexane-2,4-dione hydrochloride] yielded an IC50 of less than 500 nM. Then `Cc1cc(Cl)cc(-c2ncnn3cc(CN4C(=O)C5C(C4=O)C5(C)C)cc23)c1CC1CN[C@@H](C)CO1` (stereo partly drawn) [Example 49, 3-((4-(5-chloro-3-methyl-2-(((5S)-5-methylmorpholin-2-yl)methyl)phenyl)pyrrolo[2,1-f][1,2,4]triazin-6-yl)methyl)-6,6-dimethyl-3-azabicyclo[3.1.0]hexane-2,4-dione hydrochloride], with less than 500 nM; and `Cc1cc(Cl)cc(-c2ncnn3cc(Cn4c(=O)c(F)cn(C)c4=O)cc23)c1CC1CNC[C@H](C)O1` (single isomer, unassigned) [Example 108, hydrochloride], with less than 500 nM; and `Cc1cc(Cl)cc(-c2ncnn3cc(CN4C(=O)C5C(C4=O)C5(C)C)cc23)c1C[C@@H]1CNCCO1` (stereo partly drawn) [Example 2, 3-((4-(5-chloro-3-methyl-2-(((R)-morpholin-2-yl)methyl)phenyl)pyrrolo[2,1-f][1,2,4]triazin-6-yl)methyl)-6,6-dimethyl-3-azabicyclo[3.1.0]hexane-2,4-dione hydrochloride], with less than 500 nM. On to `CC1(C)C2C(=O)N(Cc3cc4c(-c5cc(Cl)cc6ccn(CC7(C#N)CCNCC7)c56)ncnn4c3)C(=O)C21` (stereo not shown) [Example 25, 4-((5-chloro-7-(6-((6,6-dimethyl-2,4-dioxo-3-azabicyclo[3.1.0]hexan-3-yl)methyl)pyrrolo[2,1-f][1,2,4]triazin-4-yl)-1H-indol-1-yl)methyl)piperidine-4-carbonitrile 2,2,2-trifluoroacetate], for which the IC50 is less than 500 nM. Then `Cc1cc(Cl)cc(-c2ncnn3cc(Cn4c(=O)ccn(CC(F)(F)F)c4=O)cc23)c1CC1CNC[C@H](C)O1` (stereo partly drawn) [Example 62, 3-((4-(5-chloro-3-methyl-2-(((6S)-6-methylmorpholin-2-yl)methyl)phenyl)pyrrolo[2,1-f][1,2,4]triazin-6-yl)methyl)-1-(2,2,2-trifluoroethyl)pyrimidine-2,4(1H,3H)-dione hydrochloride], with less than 500 nM.

The molecule `CC1(C)C2C(=O)N(Cc3cc4c(-c5cc(Cl)cc6c5N(C5CCNC5)CCC6)ncnn4c3)C(=O)C21` (single isomer, unassigned) [Example 66, 3-((4-(6-chloro-1-(pyrrolidin-3-yl)-1,2,3,4-tetrahydroquinolin-8-yl)pyrrolo[2,1-f][1,2,4]triazin-6-yl)methyl)-6,6-dimethyl-3-azabicyclo[3.1.0]hexane-2,4-dione hydrochloride] had an IC50 of less than 500 nM. `Cc1cc(Cl)cc(-c2ncnn3cc(CN4C(=O)CCN(C)C4=O)cc23)c1CC1CNC[C@H](C)O1` (stereo partly drawn) [Example 109, 3-((4-(5-chloro-3-methyl-2-(((6S)-6-methylmorpholin-2-yl)methyl)phenyl)pyrrolo[2,1-f][1,2,4]triazin-6-yl)methyl)-1-methyldihydropyrimidine-2,4(1H,3H)-dione hydrochloride] came in with an IC50 of less than 500 nM. Then `Cc1cc(Cl)cc(-c2ncnn3cc(CN4C(=O)C5C(C4=O)C5(C)C)cc23)c1NCC1(C)CCNCC1` (stereo not shown) [Example 78, 3-((4-(5-chloro-3-methyl-2-(((4-methylpiperidin-4-yl)methyl)amino)phenyl)pyrrolo[2,1-f][1,2,4]triazin-6-yl)methyl)-6,6-dimethyl-3-azabicyclo[3.1.0]hexane-2,4-dione dihydrochloride], with less than 500 nM; and `Cc1cc(Cl)cc(-c2ncnn3cc(Cn4c(=O)cc[nH]c4=O)cc23)c1C[C@@H]1CNCCO1` (single isomer, unassigned) [Example 124, hydrochloride], with less than 500 nM.

In turn, `Cl.[2H]C([2H])([2H])n1ccc(=O)n(Cc2cc3c(-c4cc(Cl)cc5ccn(CC6(F)CCNCC6)c45)ncnn3c2)c1=O` [Example 131, 3-((4-(5-chloro-1-((4-fluoropiperidin-4-yl)methyl)-1H-indol-7-yl)pyrrolo[2,1-f][1,2,4]triazin-6-yl)methyl)-1-(methyl-d3)pyrimidine-2,4(1H,3H)-dione hydrochloride] came in with an IC50 of less than 500 nM. Molecule `Cc1cc(Cl)cc(-c2ncnn3cc(CN4C(=O)C5C(C4=O)C5(C)C)cc23)c1OCC1CCNCC1` (stereo not shown) [Example 48, 3-((4-(5-chloro-3-methyl-2-(piperidin-4-ylmethoxy)phenyl)pyrrolo[2,1-f][1,2,4]triazin-6-yl)methyl)-6,6-dimethyl-3-azabicyclo[3.1.0]hexane-2,4-dione hydrochloride] showed an IC50 of less than 500 nM. Under `CC1(C)C2C(=O)N(Cc3cc4c(-c5cc(Cl)cc6c5N(C5CCNC5)CCO6)ncnn4c3)C(=O)C21` (stereo not shown) [Example 55, 3-((4-(7-chloro-4-(pyrrolidin-3-yl)-3,4-dihydro-2H-benzo[b][1,4]oxazin-5-yl)pyrrolo[2,1-f][1,2,4]triazin-6-yl)methyl)-6,6-dimethyl-3-azabicyclo[3.1.0]hexane-2,4-dione hydrochloride] stands less than 500 nM; under `CC1(C)C2C(=O)N(Cc3cc4c(-c5cc(Cl)cc6c5N(CC5(F)CCNCC5)CCC6)ncnn4c3)C(=O)C21` (stereo not shown) [Example 63, 3-((4-(6-chloro-1-((4-fluoropiperidin-4-yl)methyl)-1,2,3,4-tetrahydroquinolin-8-yl)pyrrolo[2,1-f][1,2,4]triazin-6-yl)methyl)-6,6-dimethyl-3-azabicyclo[3.1.0]hexane-2,4-dione hydrochloride], less than 500 nM.

For `Cc1cc(Cl)cc(-c2ncnn3cc(Cn4c(=O)ccn(CCF)c4=O)cc23)c1CC1CNC[C@H](C)O1` (stereo partly drawn) [Example 101, 3-((4-(5-chloro-3-methyl-2-(((6S)-6-methylmorpholin-2-yl)methyl)phenyl)pyrrolo[2,1-f][1,2,4]triazin-6-yl)methyl)-1-(2-fluoroethyl)pyrimidine-2,4(1H,3H)-dione hydrochloride], the IC50 is less than 500 nM. Then `Cc1cc(Cl)cc(-c2ncnn3cc(CN4C(=O)C5C(C4=O)C5(C)C)cc23)c1CN1CCNC[C@@H]1C` (stereo partly drawn) [Example 6, 3-((4-(5-chloro-3-methyl-2-(((S)-2-methylpiperazin-1-yl)methyl)phenyl)pyrrolo[2,1-f][1,2,4]triazin-6-yl)methyl)-6,6-dimethyl-3-azabicyclo[3.1.0]hexane-2,4-dione hydrochloride], with less than 500 nM.
